{"source": "paper PMC5218480", "about": "(PLoS ONE, 2017)", "system": "MV-4-11 cells", "experiment": "Gene expression microarray analysis (Affymetrix PrimeView) and GSEA", "format": "cell-based, human", "design": "RFU PODN (11730768_x_at) / Fold change /veh PODN (11730768_x_at) / RFU LINC00158 (11744669_a_at) / Fold change /veh LINC00158 (11744669_a_at) / RFU DUSP10 (11751237_a_at) / Fold change /veh DUSP10 (11751237_a_at) / RFU ID3 (11757404_x_at) / Fold change /veh ID3 (11757404_x_at) / RFU PLEKHG5 (11737974_s_at) / Fold change /veh PLEKHG5 (11737974_s_at) / RFU LRRC4B (11730491_at) / Fold change /veh LRRC4B (11730491_at) / RFU GIMAP4 (11747438_a_at) / Fold change /veh GIMAP4 (11747438_a_at) / RFU KRT8 (11758183_x_at) / Fold change /veh KRT8 (11758183_x_at) / RFU CNN1 (11734310_a_at) / Fold change /veh CNN1 (11734310_a_at) / RFU VPS37D (11726825_at) / Fold change /veh VPS37D (11726825_at) / RFU C10orf10 (11716522_x_at) / Fold change /veh C10orf10 (11716522_x_at) / RFU KIR2DL2 /// KIR2DL4 /// KIR2DL5A /// KIR2DL5B /// KIR2DS1 /// KIR2DS2 /// KIR2DS3 /// KIR2DS4 /// KIR3DL3 /// KIR3DL3 /// KIR3DS1 (11738374_at) / Fold change /veh KIR2DL2 /// KIR2DL4 /// KIR2DL5A /// KIR2DL5B /// KIR2DS1 /// KIR2DS2 /// KIR2DS3 /// KIR2DS4 /// KIR3DL3 /// KIR3DL3 /// KIR3DS1 (11738374_at) / RFU C1QL1 (11718748_at) / Fold change /veh C1QL1 (11718748_at) / RFU TMPRSS4 (11747572_a_at) / Fold change /veh TMPRSS4 (11747572_a_at) / RFU HAMP (11756126_x_at) / Fold change /veh HAMP (11756126_x_at) / RFU RNFT2 (11725882_a_at) / Fold change /veh RNFT2 (11725882_a_at) / RFU NR4A2 (11747474_a_at) / Fold change /veh NR4A2 (11747474_a_at) / RFU ABCC12 (11746883_a_at) / Fold change /veh ABCC12 (11746883_a_at) / RFU TMEM136 (11760407_x_at) / Fold change /veh TMEM136 (11760407_x_at) / RFU CLDN22 /// WWC2 (11732394_at) / Fold change /veh CLDN22 /// WWC2 (11732394_at) / RFU HLA-DPB1 (11760878_x_at) / Fold change /veh HLA-DPB1 (11760878_x_at) / RFU SPINT1 (11716480_a_at) / Fold change /veh SPINT1 (11716480_a_at) / RFU GAP43 (11754022_s_at) / Fold change /veh GAP43 (11754022_s_at) / RFU A4GNT (11735810_at) / Fold change /veh A4GNT (11735810_at) / RFU PRB3 (11715151_x_at) / Fold change /veh PRB3 (11715151_x_at) / RFU TUBB4B (11761932_at) / Fold change /veh TUBB4B (11761932_at) / RFU CAPN14 (11732068_a_at) / Fold change /veh CAPN14 (11732068_a_at) / RFU TMCC2 (11721928_a_at) / Fold change /veh TMCC2 (11721928_a_at) / RFU IRGQ (11745062_a_at) / Fold change /veh IRGQ (11745062_a_at) / RFU FAM174B (11720279_a_at) / Fold change /veh FAM174B (11720279_a_at) / RFU TMPRSS4 (11748680_a_at) / Fold change /veh TMPRSS4 (11748680_a_at) / RFU FAM212B (11763350_a_at) / Fold change /veh FAM212B (11763350_a_at) / RFU PLEKHG5 (11743358_a_at) / Fold change /veh PLEKHG5 (11743358_a_at) / RFU ZSCAN30 (11745921_a_at) / Fold change /veh ZSCAN30 (11745921_a_at) / RFU CMKLR1 (11741424_a_at) / Fold change /veh CMKLR1 (11741424_a_at) / RFU LOC101060620 /// MAPK8IP1 (11723275_at) / Fold change /veh LOC101060620 /// MAPK8IP1 (11723275_at) / RFU SPTSSB (11747773_x_at) / Fold change /veh SPTSSB (11747773_x_at) / RFU PRSS12 (11739890_at) / Fold change /veh PRSS12 (11739890_at) / RFU BIN1 (11741810_x_at) / Fold change /veh BIN1 (11741810_x_at) / RFU WNT11 (11732464_a_at) / Fold change /veh WNT11 (11732464_a_at) / RFU C10orf10 (11716521_a_at) / Fold change /veh C10orf10 (11716521_a_at) / RFU C5orf56 (11738089_at) / Fold change /veh C5orf56 (11738089_at) / RFU CYB561 (11721691_x_at) / Fold change /veh CYB561 (11721691_x_at) / RFU ANKRD19P (11752326_a_at) / Fold change /veh ANKRD19P (11752326_a_at) / RFU OR2T12 /// OR2T33 /// OR2T8 (11738714_s_at) / Fold change /veh OR2T12 /// OR2T33 /// OR2T8 (11738714_s_at) / RFU VCAN (11748164_a_at) / Fold change /veh VCAN (11748164_a_at) / RFU JSRP1 (11732532_at) / Fold change /veh JSRP1 (11732532_at) / RFU KRTAP10-11 (11738290_x_at) / Fold change /veh KRTAP10-11 (11738290_x_at) / RFU MYO3A (11730013_a_at) / Fold change /veh MYO3A (11730013_a_at) / RFU EBF3 (11725865_a_at) / Fold change /veh EBF3 (11725865_a_at) / RFU CAMK2N1 (11719241_x_at) / Fold change /veh CAMK2N1 (11719241_x_at) / RFU C5orf56 (11738088_a_at) / Fold change /veh C5orf56 (11738088_a_at) / RFU OLFML3 (11715873_a_at) / Fold change /veh OLFML3 (11715873_a_at) / RFU LOC100653217 /// NTM (11731650_a_at) / Fold change /veh LOC100653217 /// NTM (11731650_a_at) / RFU MAPK11 (11762145_a_at) / Fold change /veh MAPK11 (11762145_a_at) / RFU FIZ1 (11724087_x_at) / Fold change /veh FIZ1 (11724087_x_at) / RFU OASL (11726364_x_at) / Fold change /veh OASL (11726364_x_at) / RFU SOX15 (11748057_x_at) / Fold change /veh SOX15 (11748057_x_at) / RFU CD79A (11719716_a_at) / Fold change /veh CD79A (11719716_a_at) / RFU HIST1H1D (11736915_at) / Fold change /veh HIST1H1D (11736915_at) / RFU CASKIN2 (11723855_a_at) / Fold change /veh CASKIN2 (11723855_a_at) / RFU LOC730098 (11760151_x_at) / Fold change /veh LOC730098 (11760151_x_at) / RFU OR4N2 (11742367_at) / Fold change /veh OR4N2 (11742367_at) / RFU PRRT2 (11749266_a_at) / Fold change /veh PRRT2 (11749266_a_at) / RFU SNX32 (11753110_a_at) / Fold change /veh SNX32 (11753110_a_at) / RFU CDHR5 (11726645_a_at) / Fold change /veh CDHR5 (11726645_a_at) / RFU RCAN1 (11760418_a_at) / Fold change /veh RCAN1 (11760418_a_at) / RFU FAM167A (11723789_a_at) / Fold change /veh FAM167A (11723789_a_at) / RFU FAM26E (11764081_at) / Fold change /veh FAM26E (11764081_at) / RFU ISYNA1 (11749810_s_at) / Fold change /veh ISYNA1 (11749810_s_at) / RFU ACY1 (11761880_at) / Fold change /veh ACY1 (11761880_at) / RFU 11764098_at / Fold change /veh 11764098_at / RFU SAMD14 (11745864_x_at) / Fold change /veh SAMD14 (11745864_x_at) / RFU NPB (11741838_a_at) / Fold change /veh NPB (11741838_a_at) / RFU TMPRSS6 (11731388_a_at) / Fold change /veh TMPRSS6 (11731388_a_at) / RFU KRTAP10-2 (11738614_at) / Fold change /veh KRTAP10-2 (11738614_at) / RFU ARHGAP8 /// PRR5-ARHGAP8 (11727945_x_at) / Fold change /veh ARHGAP8 /// PRR5-ARHGAP8 (11727945_x_at) / RFU KRTAP5-7 /// NADSYN1 (11734609_at) / Fold change /veh KRTAP5-7 /// NADSYN1 (11734609_at) / RFU RASL12 (11751679_a_at) / Fold change /veh RASL12 (11751679_a_at) / RFU CDKN2B (11736163_a_at) / Fold change /veh CDKN2B (11736163_a_at) / RFU PRF1 (11729649_at) / Fold change /veh PRF1 (11729649_at) / RFU, ZNF638 /// ZNF638-IT1 / Fold change vs veh, ZNF638 /// ZNF638-IT1 / RFU, PANK3 / Fold change vs veh, PANK3 / RFU, SH3YL1 / Fold change vs veh, SH3YL1 / RFU, ZEB2 / Fold change vs veh, ZEB2 / RFU, NRIP1 / Fold change vs veh, NRIP1 / RFU, PTTG1IP / Fold change vs veh, PTTG1IP / RFU, CAPN2 / Fold change vs veh, CAPN2 / RFU, MED14 / Fold change vs veh, MED14 / RFU, SNORA58 / Fold change vs veh, SNORA58 / RFU, C1orf63 / Fold change vs veh, C1orf63 / RFU, LRRFIP1 / Fold change vs veh, LRRFIP1 / RFU, NDUFAF7 / Fold change vs veh, NDUFAF7 / RFU, SLC12A2 / Fold change vs veh, SLC12A2 / RFU, IBTK / Fold change vs veh, IBTK / RFU, ESF1 / Fold change vs veh, ESF1 / Fold change vs veh, TMEM50B / RFU, TAOK1 / Fold change vs veh, TAOK1 / RFU, ACBD3 / Fold change vs veh, ACBD3 / RFU, TMA16 / Fold change vs veh, TMA16 / RFU, RWDD3 / Fold change vs veh, RWDD3 / RFU, BCAT1 / Fold change vs veh, BCAT1 / RFU, EDEM3 / Fold change vs veh, EDEM3 / RFU, TMEM33 / Fold change vs veh, TMEM33 / RFU, WDR75 / Fold change vs veh, WDR75 / RFU, AHCTF1 / Fold change vs veh, AHCTF1 / RFU, TFRC / Fold change vs veh, TFRC / RFU, ZDHHC17 / Fold change vs veh, ZDHHC17 / RFU, NOM1 / Fold change vs veh, NOM1 / RFU, ARL8B / Fold change vs veh, ARL8B / RFU, ZBTB11 / Fold change vs veh, ZBTB11 / RFU, TAMM41 / Fold change vs veh, TAMM41 / RFU, KIAA1704 /// LOC100996395 / Fold change vs veh, KIAA1704 /// LOC100996395 / RFU, ING1 / Fold change vs veh, ING1 / RFU, TRMT61B / Fold change vs veh, TRMT61B / RFU, FUBP3 / Fold change vs veh, FUBP3 / RFU, TP53 / Fold change vs veh, TP53 / RFU, TNKS2 / Fold change vs veh, TNKS2 / RFU, ZFP14 / Fold change vs veh, ZFP14 / RFU, ACTR2 / Fold change vs veh, ACTR2 / RFU, PPP3R1 / Fold change vs veh, PPP3R1 / RFU, PIK3R1 / Fold change vs veh, PIK3R1 / RFU, HNRNPA1 / Fold change vs veh, HNRNPA1 / RFU, RNF170 / Fold change vs veh, RNF170 / RFU, ZNF28 / Fold change vs veh, ZNF28 / RFU, RNGTT / Fold change vs veh, RNGTT / RFU, OGT / Fold change vs veh, OGT / RFU, BRD1 / Fold change vs veh, BRD1 / RFU, MARS / Fold change vs veh, MARS / RFU, ZNF655 / Fold change vs veh, ZNF655 / RFU, FAHD1 / Fold change vs veh, FAHD1 / RFU, BDP1 / Fold change vs veh, BDP1 / RFU, LRRCC1 / Fold change vs veh, LRRCC1 / RFU, ARID1A / Fold change vs veh, ARID1A / RFU, ZNF146 / Fold change vs veh, ZNF146 / RFU, ZNF330 / Fold change vs veh, ZNF330 / RFU, GPN3 / Fold change vs veh, GPN3 / RFU, C9orf123 / Fold change vs veh, C9orf123 / RFU, N4BP2L2 / Fold change vs veh, N4BP2L2 / RFU, ARFIP1 / Fold change vs veh, ARFIP1 / RFU, FAM179B / Fold change vs veh, FAM179B / RFU, BCL10 / Fold change vs veh, BCL10 / RFU, UHRF1BP1L / Fold change vs veh, UHRF1BP1L / RFU, BET1 / Fold change vs veh, BET1 / RFU, CNOT2 / Fold change vs veh, CNOT2 / RFU, ZNF268 / Fold change vs veh, ZNF268 / Fold change vs veh, ZNF507 / RFU, DGCR2 / Fold change vs veh, DGCR2 / RFU, WDSUB1 / Fold change vs veh, WDSUB1 / Fold change vs veh, HSP90B1 /// MIR3652 / RFU, ADSS / Fold change vs veh, ADSS / RFU, GK / Fold change vs veh, GK / RFU, ZNF148 / Fold change vs veh, ZNF148 / RFU, TAF9 / Fold change vs veh, TAF9 / RFU, SLC1A5 / Fold change vs veh, SLC1A5 / RFU, SLMO2 / Fold change vs veh, SLMO2 / RFU, ABCC4 / Fold change vs veh, ABCC4 / RFU, LOC101060439 /// RAP1B / Fold change vs veh, LOC101060439 /// RAP1B / RFU, RFX7 / Fold change vs veh, RFX7 / RFU, GTPBP10 / Fold change vs veh, GTPBP10 / RFU, CNEP1R1 / Fold change vs veh, CNEP1R1 / RFU, BIVM-ERCC5 /// ERCC5 / Fold change vs veh, BIVM-ERCC5 /// ERCC5 / RFU, ILF3 / Fold change vs veh, ILF3 / RFU 11762660_at / Fold change /veh 11762660_at / RFU VCAN (11757783_s_at) / Fold change /veh VCAN (11757783_s_at) / RFU DDX43 (11728927_at) / Fold change /veh DDX43 (11728927_at) / RFU KRT8 (11758188_x_at) / Fold change /veh KRT8 (11758188_x_at) / RFU NKD1 (11759106_at) / Fold change /veh NKD1 (11759106_at) / RFU SRD5A1 (11742802_a_at) / Fold change /veh SRD5A1 (11742802_a_at) / RFU TPSAB1 /// TPSB2 (11721975_s_at) / Fold change /veh TPSAB1 /// TPSB2 (11721975_s_at) / RFU GSTM3 (11746129_a_at) / Fold change /veh GSTM3 (11746129_a_at) / RFU IL23R (11737362_x_at) / Fold change /veh IL23R (11737362_x_at) / RFU TMEM51 (11727254_a_at) / Fold change /veh TMEM51 (11727254_a_at) / RFU PIWIL2 (11732686_x_at) / Fold change /veh PIWIL2 (11732686_x_at) / RFU ORM1 (11744905_x_at) / Fold change /veh ORM1 (11744905_x_at) / RFU CCDC152 (11743942_at) / Fold change /veh CCDC152 (11743942_at) / RFU ECM1 (11717891_a_at) / Fold change /veh ECM1 (11717891_a_at) / RFU IL23R (11748794_a_at) / Fold change /veh IL23R (11748794_a_at) / RFU TNFAIP8L3 (11732012_x_at) / Fold change /veh TNFAIP8L3 (11732012_x_at) / RFU MBOAT4 (11741988_at) / Fold change /veh MBOAT4 (11741988_at) / RFU 11764193_at / Fold change /veh 11764193_at / RFU TMEM53 (11763286_at) / Fold change /veh TMEM53 (11763286_at) / RFU MAGEB2 (11727129_at) / Fold change /veh MAGEB2 (11727129_at) / RFU TMEM200A (11744735_a_at) / Fold change /veh TMEM200A (11744735_a_at) / RFU CCDC152 (11751479_a_at) / Fold change /veh CCDC152 (11751479_a_at) / RFU FAM211A (11726209_a_at) / Fold change /veh FAM211A (11726209_a_at) / RFU RGS16 (11746705_a_at) / Fold change /veh RGS16 (11746705_a_at) / RFU VCAN (11755009_s_at) / Fold change /veh VCAN (11755009_s_at) / RFU RHOB (11743442_s_at) / Fold change /veh RHOB (11743442_s_at) / RFU RGS16 (11720943_a_at) / Fold change /veh RGS16 (11720943_a_at) / RFU RGS16 (11720944_at) / Fold change /veh RGS16 (11720944_at) / RFU, VPS4B / Fold change vs veh, VPS4B / RFU, CREB1 / Fold change vs veh, CREB1 / RFU, DNAJC13 / Fold change vs veh, DNAJC13 / RFU, GNAQ / Fold change vs veh, GNAQ / RFU, CDK5R1 / Fold change vs veh, CDK5R1 / RFU, ZRANB3 / Fold change vs veh, ZRANB3 / RFU, CUL4A / Fold change vs veh, CUL4A / RFU, CCNY / Fold change vs veh, CCNY / RFU, UFL1 / Fold change vs veh, UFL1 / RFU, COG3 / Fold change vs veh, COG3 / RFU, DIAPH2 / Fold change vs veh, DIAPH2 / RFU, SKA2 / Fold change vs veh, SKA2 / RFU, AFF3 / Fold change vs veh, AFF3 / RFU, LMF1 / Fold change vs veh, LMF1 / RFU, IPO11 / Fold change vs veh, IPO11 / RFU, DFFB / Fold change vs veh, DFFB / RFU, FOXP1 / Fold change vs veh, FOXP1 / RFU, CARD8 / Fold change vs veh, CARD8 / RFU, STRN3 / Fold change vs veh, STRN3 / RFU, ADK / Fold change vs veh, ADK / RFU, RASSF2 / Fold change vs veh, RASSF2 / RFU, WIPF1 / Fold change vs veh, WIPF1 / RFU, LARP1B / Fold change vs veh, LARP1B / RFU, RASA1 / Fold change vs veh, RASA1 / RFU, RB1 / Fold change vs veh, RB1 / RFU, PPFIA1 / Fold change vs veh, PPFIA1 / RFU, MAT2A / Fold change vs veh, MAT2A / RFU, CCT5 / Fold change vs veh, CCT5 / RFU, WDR92 / Fold change vs veh, WDR92 / RFU, CUX1 / Fold change vs veh, CUX1 / RFU, TTC7A / Fold change vs veh, TTC7A / RFU, TMEM135 / Fold change vs veh, TMEM135 / RFU, DEPTOR / Fold change vs veh, DEPTOR / RFU, CPM / Fold change vs veh, CPM / RFU, DNAJB6 / Fold change vs veh, DNAJB6 / RFU, CACNA2D3 / Fold change vs veh, CACNA2D3 / RFU, DTX4 / Fold change vs veh, DTX4 / RFU, TFCP2 / Fold change vs veh, TFCP2 / RFU, GMCL1 /// GMCL1P1 / Fold change vs veh, GMCL1 /// GMCL1P1 / RFU, AEBP2 / Fold change vs veh, AEBP2 / RFU, SNHG1 /// SNORD22 /// SNORD25 /// SNORD26 /// SNORD27 /// SNORD28 /// SNORD29 /// SNORD31 / Fold change vs veh, SNHG1 /// SNORD22 /// SNORD25 /// SNORD26 /// SNORD27 /// SNORD28 /// SNORD29 /// SNORD31 / Fold change (Aza/veh), C12orf56 (ProbeSet 11735607_a_at) / Fold change (ACY-1035/veh), C12orf56 (ProbeSet 11735607_a_at) / Fold change (Aza/veh), FGFR1OP (ProbeSet 11751329_s_at) / Fold change (ACY-1035/veh), FGFR1OP (ProbeSet 11751329_s_at) / Fold change (Aza/veh), VPS36 (ProbeSet 11739960_a_at) / Fold change (ACY-1035/veh), VPS36 (ProbeSet 11739960_a_at) / RFU SYPL1 (11715823_x_at) / Fold change /veh SYPL1 (11715823_x_at) / RFU IGFBP7 (11715501_s_at) / Fold change /veh IGFBP7 (11715501_s_at) / RFU REEP3 (11722064_at) / Fold change /veh REEP3 (11722064_at) / RFU IGLL1 (11728026_x_at) / Fold change /veh IGLL1 (11728026_x_at): dose or concentration left out as unconfirmed", "conditions": "ProbeSet 11749477_a_at; LIST B"}
{"smiles": "Nc1ccc(-c2cccs2)cc1NC(=O)c1ccc2c(c1)cc(C1CC1)n2CCN1CCOCC1", "note": "[ACY-1035]", "values": [{"measurement": "RFU, EDEM3", "value": 51.94, "unit": "RFU"}]}
